Data reported in US20230146923A1, “COMPOSITIONS AND METHODS FOR INHIBITION AND TARGETING OF P97” (California Institute of Technology, priority 2021, published 2023).
Where a SMILES comes first, the peptide text is derived from it. The star is where a group is joined. Cbz = O=C(OCc1ccccc1)*

Legend:
Assay type in all cases: cell-based
HCT116 cells [1] = assay: TMT labeling proteomics of HCT116 cells treated with MG132, CB-5083 or NMS-873; details: for Log2 FC Baculoviral IAP repeat-containing protein 5 (BIRC5) / Log2 FC Cell division cycle protein 20 homolog (CDC20) / Log2 FC F-box only protein 5 (FBXO5) / Log2 FC G1/S-specific cyclin-D1 (CCND1) / Log2 FC Geminin (GMNN) / Log2 FC M-phase inducer phosphatase 2 (CDC25B) / Log2 FC Mitotic checkpoint serine/threonine-protein kinase BUB1 (BUB1) / Log2 FC Myc proto-oncogene protein (MYC) / Log2 FC Origin recognition complex subunit 6 (ORC6) / Log2 FC Ribonucleoside-diphosphate reductase subunit M2 (RRM2) / Log2 FC Securin (PTTG1): compound vs DMSO
Procedure: HCT116 cells were treated with 1 μM MG132, 2 μM CB-5083 or 4 μM of NMS-874 for 6 h or 24 h, n=2. […] M, C and N represents MG132, CB-5083 and NMS-873, respectively.
As a step toward understanding the differential effects of inhibiting p97 and the proteasome in cancer treatment, the effect of inhibiting p97 was compared to proteasome inhibition using tandem mass tag (TMT) 16-plexed labelling. This technique allowed for capture of alterations in the proteome after exposure to MG132 (proteasome inhibitor) and p97 inhibitors (CB-5083 and NMS-873). […] Samples were pooled together, fractionated into 8 fractions using high pH reverse chromatography, and analyzed using the highly accurate RTS-SPS-MS3 method.

HCT116 cells [2] = assay: Cell cycle analysis (DNA content); details: HCT116, 24 h; 1 μM MG132, 2 μM CB-5083
Procedure: FIG. 7A depicts cell cycle analysis of HCT116 cells after 24 h of treatments with DMSO, 1 μM of MG132 (MG) or 2 μM of CB-5083. […] Data were from TMT labeling proteomics. M, C and N indicates MG132, CB-5083 and NMS-873 treatment, respectively. […] HCT116 cells were treated for 24 h with DMSO, 1 μM of MG132 (MG), 2 μM of CB-5083 (CB) or 4 μM of NMS-873 (NMS), n=3.

E2F1 = E2F1 reporter assay; details: HCT116 transfected with pGL2-AN plasmid, 8 h treatment, luminescence
Procedure: (§1) FIGS. 10A-10F depicts p97 inhibition impairs the transcriptional activity of E2F1 by downregulating the CCND1/CDK complex. […] Data was analyzed using the g:Profiler website. Shading indicates the gene is a potential target of transcription factor c-Myb or E2F1. Blank indicates it is not a target gene. FIG. 10B depicts known regulatory network of the CCND1/CDK/RB1/E2F1 pathway. […] HCT116 cells were treated with 1 μM MG132, 2 μM CB-5083 or 4 μM of NMS-874 for 6 h. FIGS. 10E and 10F show transcriptional activity of E2F1 measured using E2F1 reporter assay. HCT116 cells were transfected with pGL2-AN plasmid (Addgene: 20950) for 24 h. Then cells were plated in 384 well plate and incubated for 16 h. The luminescence were detected after 8 h treatment with MG132, CB-5083 or NMS-873. Data are shown as mean±SD, n=3. f, qRT-PCR analysis of ATF3, DHFR and CCND1 RNAs following treatment with MG132, CB-5083 or NMS-874. HCT116 cells were treated for 2, 6 and 24 h using the same concentration as proteomic and western blot assay (n=4).
(§2) To determine if the decreased expression of E2F1 target genes was caused by the downregulation of E2F1 levels due to ER stress, qPCR and western blot were used to evaluate E2F1 levels. […] The transcriptional activity of E2F1 can also be repressed through the formation of a complex with the tumor suppressor protein retinoblastoma (RB1) (FIG. 10B). […]

HCT116 cells [3] = assay: qRT-PCR analysis of ATF3, DHFR and CCND1 RNAs; details: HCT116, qPCR
Procedure: as §1, §2

cyclin D1 = assay: Cyclin D1 level and degradation (co-treatment, CHX chase)
Procedure: FIGS. 12A-12C depicts Western blots detecting the effects of p97 inhibitors and MG132 on cell cycle proteins in HT29 and HCT116 cells. […] Then, 50 μM of CHX was added and cells were collected at 0 h, 0.5 h, and 1 h. FIG. 12C depicts half-life of cyclin D1 in HCT116 cells. HCT116 cells were pre-treated with 5 μM of CB-5083 or DMSO for 30 minutes before adding 50 μM of CHX, and cells were collected at 0, 10, 20, 30 min (n=3), * indicates p<0.05 according to unpaired t-test.
(§3) The concentration of MG132, CB-5083 and Baf A1 was 1 μM, 2 μM and 10 μM, respectively. […] FIGS. 13D-13E depict the half-life of Securin in HCT116 cells. HCT116 cells were treated with 1 μM of MG132, 2 μM of CB-5083, 1 μM of MG132 plus 2 μM of CB-5083 or DMSO. […] Cells were pretreated with […] for 1 h. […] For FIGS. 13B-13G, D, B, M, C and N represents DMSO, Baf A1, MG132, CB-5083 and NMS-873, respectively. Data are shown as mean±SD. Statistical analysis was performed using one-way ANOVA.
Cells were co-treated with CB-5083 and either the proteasome inhibitor MG132 or the autophagy inhibitor Bafilomycin A1 (Baf A1).

Securin = Securin degradation (CHX chase) in HCT116 cells; details: HCT116, 1 μM MG132, 50 μM CHX
Procedure: as §3

CC(C)C[C@@H](C=O)NC(=O)[C@H](CC(C)C)NC(=O)[C@H](CC(C)C)NC(=O)OCc1ccccc1 [MG132] (Cbz-Leu-Leu-Leu-aldehyde)
TAX1BP1 and p62 protein levels (HCT116 cells [1]; HCT116, 6 h and 24 h): upregulated | Log2 FC Baculoviral IAP repeat-containing protein 5 (BIRC5) (HCT116 cells [1]; HCT116, 6 h treatment): 0.6 | Log2 FC Cell division cycle protein 20 homolog (CDC20) (HCT116 cells [1]; HCT116, 6 h treatment): 0.8 | Log2 FC F-box only protein 5 (FBXO5) (HCT116 cells [1]; HCT116, 6 h treatment): 0.2 | Log2 FC G1/S-specific cyclin-D1 (CCND1) (HCT116 cells [1]; HCT116, 6 h treatment): 0.2 | Log2 FC Geminin (GMNN) (HCT116 cells [1]; HCT116, 6 h treatment): 0.9 | Log2 FC M-phase inducer phosphatase 2 (CDC25B) (HCT116 cells [1]; HCT116, 6 h treatment): 0.3 | Log2 FC Mitotic checkpoint serine/threonine-protein kinase BUB1 (BUB1) (HCT116 cells [1]; HCT116, 6 h treatment): 1.2 | Log2 FC Myc proto-oncogene protein (MYC) (HCT116 cells [1]; HCT116, 6 h treatment): 1.2 | Log2 FC Origin recognition complex subunit 6 (ORC6) (HCT116 cells [1]; HCT116, 6 h treatment): 0.3 | Log2 FC Ribonucleoside-diphosphate reductase subunit M2 (RRM2) (HCT116 cells [1]; HCT116, 6 h treatment): 0.6 | Log2 FC Securin (PTTG1) (HCT116 cells [1]; HCT116, 6 h treatment): 1.4 | Four XBP1 activated genes/proteins (DNAJB11, SRPR, SRPRB, SYVN1), Log2FC (HCT116 cells [1]; HCT116, 24 h of treatment, p<0.05): not | Log2 FC Baculoviral IAP repeat-containing protein 5 (BIRC5) (HCT116 cells [1]; HCT116, 24 h treatment): 1.0 | Log2 FC Cell division cycle protein 20 homolog (CDC20) (HCT116 cells [1]; HCT116, 24 h treatment): 1.1 | Log2 FC F-box only protein 5 (FBXO5) (HCT116 cells [1]; HCT116, 24 h treatment): 1.5 | Log2 FC G1/S-specific cyclin-D1 (CCND1) (HCT116 cells [1]; HCT116, 24 h treatment): 0.4 | Log2 FC Geminin (GMNN) (HCT116 cells [1]; HCT116, 24 h treatment): 1.4 | Log2 FC M-phase inducer phosphatase 2 (CDC25B) (HCT116 cells [1]; HCT116, 24 h treatment): −0.2 | Log2 FC Mitotic checkpoint serine/threonine-protein kinase BUB1 (BUB1) (HCT116 cells [1]; HCT116, 24 h treatment): 1.4 | Log2 FC Myc proto-oncogene protein (MYC) (HCT116 cells [1]; HCT116, 24 h treatment): 0.2 | Log2 FC Origin recognition complex subunit 6 (ORC6) (HCT116 cells [1]; HCT116, 24 h treatment): 1.0 | Log2 FC Ribonucleoside-diphosphate reductase subunit M2 (RRM2) (HCT116 cells [1]; HCT116, 24 h treatment): 1.2 | Log2 FC Securin (PTTG1) (HCT116 cells [1]; HCT116, 24 h treatment): −0.1 | CCND1 (cyclin D1) and CDK4/6 protein levels (HCT116 cells [1]; HCT116, proteomic analysis (TMT)): upregulated | Distribution of cells in the G0/G1 phase (HCT116 cells [2]): reduced distribution in the G0/G1 phase | Transcriptional activity of E2F1 (E2F1): reduce the transcriptional activity of E2F1 | mRNA levels of the E2F1 target gene DHFR (HCT116 cells [3]): reducing the mRNA level of DHFR | Cyclin D1 turnover in cytosol and nucleus (cyclin D1; HCT116, 50 μM CHX): blocked | Effect on CB-5083 mediated cyclin D1 downregulation (co-treatment) (cyclin D1; HCT116, 6 hours, MG132 1 μM, CB-5083 2 μM, Baf A1 10 μM): rescued CB-5083 mediated cyclin D1 downregulation at the protein level but not at the mRNA level | Securin protein degradation from the cytosol and nucleus (Securin): blocked
